According to patent US20240294531A1, “COVALENT HETEROCYCLES AND USES THEREOF” (Kumquat Biosciences Inc., priority 2022, published 2024):

Tests used:
[1] = Intrinsic reactivity assay; assay type: physicochemical; conditions: pH 7.4, 37° C., suitably protected Cys-OMe
From the text: Understanding of the intrinsic reactivity of electrophilic warheads with nucleophilic molecules is an important parameter influencing the stability of a compound in biological matrices. Lower intrinsic reactivity also mitigates the risk of covalent off-target reactivity. A common target residue for covalent drugs is cysteine, an amino acid containing a nucleophilic thiol side chain. The assay described here measures the rate of a compound forming a covalent bond with Boc-protected cysteine methyl ester or cysteine methyl ester that can be used as a surrogate for cysteines found on proteins.
Test compounds are prepared as 10 mM stock solutions in DMSO (Fisher cat #BP231-100). Compounds with molecular weight differing more than 3 Dalton are pooled and diluted to 5 μM in 100 mM potassium phosphate buffer, pH 7.4, containing 50 mM Boc-protected cysteine methyl ester (Combi-Blocks cat #QH-3424). Compounds incubated without Boc-protected cysteine methyl ester serve as controls. The reactions are incubated at 37° C., and reaction aliquots at different time intervals are sampled from the reaction and quenched with formic acid for subsequent LC-MS/MS analysis.
The LC-MS/MS analysis is done using a LC-40D×3 pump and SIL-40C×3 autosampler (Shimadzu) coupled to a QTRAP 6500+ (Sciex). Compounds are separated on a XBridge Premier BEH column (Waters). The sample run time is about 4 minutes per injection. The normalized peak area for each compound is extracted from the mass spectrometry raw files, and the data for each compound are plotted against time in Prism version 9.4 (GraphPad). Nonlinear regression using one-phase decay is used to estimate the rate of covalent bond formation with Boc-protected cysteine methyl ester or cysteine methyl ester and parent compound half-life (t½).

BTK wildtype protein [2] = target: T1, BTK wildtype protein (Homo sapiens (Human), UniProt Q06187); experiment: BTK wildtype HTRF displacement assay; assay type: binding; conditions: 1-hour incubation; read-out: BTK (wt) IC50
In short: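 Tracer-displacement HTRF format: compound and tracer 239 compete at the BTK active site, detected via anti-GST-Tb on GST-tagged full-length enzyme. One-hour room-temperature incubation; compounds dosed at six four-fold steps down from 5 μM. Percent inhibition versus DMSO gives IC50 by constrained four-parameter logistic fit.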
Target sequence in this assay (Q06187 2-659): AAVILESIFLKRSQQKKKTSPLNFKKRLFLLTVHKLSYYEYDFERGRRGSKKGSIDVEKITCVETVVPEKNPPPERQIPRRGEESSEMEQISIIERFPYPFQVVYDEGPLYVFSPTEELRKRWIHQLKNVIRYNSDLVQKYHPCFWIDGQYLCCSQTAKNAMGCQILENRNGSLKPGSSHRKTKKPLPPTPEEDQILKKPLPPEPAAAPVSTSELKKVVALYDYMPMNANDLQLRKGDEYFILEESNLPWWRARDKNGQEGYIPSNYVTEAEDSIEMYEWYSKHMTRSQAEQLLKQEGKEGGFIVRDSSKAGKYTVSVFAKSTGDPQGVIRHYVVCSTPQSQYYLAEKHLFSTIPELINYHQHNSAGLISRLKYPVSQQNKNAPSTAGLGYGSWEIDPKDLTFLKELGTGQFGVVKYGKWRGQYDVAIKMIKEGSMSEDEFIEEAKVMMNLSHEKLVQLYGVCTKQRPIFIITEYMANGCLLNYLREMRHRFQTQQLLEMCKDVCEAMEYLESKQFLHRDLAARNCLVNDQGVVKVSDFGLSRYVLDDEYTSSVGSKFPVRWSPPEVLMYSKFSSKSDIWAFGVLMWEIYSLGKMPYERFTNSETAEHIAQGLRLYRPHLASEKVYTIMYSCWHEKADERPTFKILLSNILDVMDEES

BTK C481S protein = BTK C481S protein (Homo sapiens (Human), UniProt Q06187, C481S); experiment: BTK C481S HTRF displacement assay; assay type: binding; conditions: 1-hour incubation
BTK C481S protein, sequence (Q06187 2-659 C481S): as the sequence (Q06187 2-659) above, with C480S counted along it
In short: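 Tracer displacement read by HTRF after 1 hour at room temperature: GST-BTK C481S 2-659, 50 nM tracer 239 (Kd 54 nM), anti-GST antibody, compound in six four-fold doses from 5 μM. Percent inhibition versus DMSO fitted (bottom 0, top 100) for IC50, converted to KI via Cheng-Prusoff.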

BTK wildtype protein [3] = target: T1, BTK wildtype protein; experiment: Kinact/KI determination for BTK protein inhibitors (Kobs); assay type: binding
Method: Test compounds were prepared as 10 mM stock solutions in DMSO (Fisher cat #BP231-100). Human recombinant BTK wildtype protein 393-659 or BTK C481S protein 393-659 was produced in house or purchased from Saromics Biostructures AB (Lund, Sweden). BTK protein was diluted to 1 μM in buffer (20 mM Hepes, pH 7.5, 150 mM NaCl, 1 mM MgCl2, 1 mM DTT). For testing BTK modification, compounds were diluted to 50× final test concentration in DMSO in 96-well storage plates. 1 μL of the diluted 50× compounds were added to appropriate wells in the PCR plate (Fisher cat #AB-0800). Increasing concentrations of compounds were added to separate wells, resulting in final assay compound concentrations of 3 μM, 10 μM, 30 μM and 100 μM. 49 μL of the stock protein solution was added to each well of the 96-well PCR plate. Reactions were mixed carefully. The plate was sealed well with aluminum plate seal and stored in a drawer at room temperature. After different incubation times, the reactions were quenched by adding 5 μL of 2% formic acid (Fisher cat #A117-50) in MilliQ H2O to each well followed by mixing with a pipette. The plate was then resealed with aluminum seal and stored until mass spectrometry analysis.
The extent of covalent modification of BTK proteins was determined by liquid chromatography electrospray mass spectrometry analysis of the intact proteins using a Thermo Q-Exactive Plus mass spectrometer. 20 μL of sample was injected onto a bioZen 3.6 μm Intact C4 column (Phenomenex cat #00B-4767-AN) placed in a column oven set to 40° C. and separated using a LC gradient from 20% to 60% solvent B. Solvent A was 0.1% formic acid and solvent B was 0.1% formic acid in acetonitrile. HESI source settings were set to 40, 5 and 1 for the sheath, auxiliary and sweep gas flow, respectively. The spray voltage was 4 kV, and the capillary temperature was 320° C. S-lens RF level was 50 and auxiliary gas heater temperature was set to 200° C. The mass spectrometry was acquired using a scan range from 650 to 1750 m/z using positive polarity at a mass resolution of 70,000, AGC target of 1e6 ions and maximum injection time of 250 ms. The recorded protein mass spectrum was deconvoluted from the raw data file using Protein Deconvolution v4.0 (Thermo). The protein mass, adduct masses and their corresponding peak intensities were exported to Excel (Microsoft). The peak intensities for the unmodified and modified protein were used to calculate the percent covalent modification of the BTK protein based on the following equation: % BTK protein modification=((BTK−compound)/(BTK)+(BTK−Compound))*100.
The Kinact/KI is a rate constant describing the efficiency of covalent bond formation resulting from the potency (KI) of the first reversible binding event and the maximum potential rate (Kinact) of inactivation. The percent […] protein modification was plotted as a function of time using Prism version 9.4.1 (GraphPad), and the observed rate of modification (Kobs), a first-order rate constant with units of inverse time, was estimated using nonlinear regression at each compound concentration. […] If Kobs is increasing with compound concentration, KI is higher than 3 μM. Kinact/KI can be estimated by plotting Kobs values against each compound concentration used in separate reactions. The Kobs values are fitted to determine Kinact and KI using the following equation, Kobs=(Kinact×[compound conc])/(KI+[compound conc]).
Target sequence in this assay (Q06187 393-659): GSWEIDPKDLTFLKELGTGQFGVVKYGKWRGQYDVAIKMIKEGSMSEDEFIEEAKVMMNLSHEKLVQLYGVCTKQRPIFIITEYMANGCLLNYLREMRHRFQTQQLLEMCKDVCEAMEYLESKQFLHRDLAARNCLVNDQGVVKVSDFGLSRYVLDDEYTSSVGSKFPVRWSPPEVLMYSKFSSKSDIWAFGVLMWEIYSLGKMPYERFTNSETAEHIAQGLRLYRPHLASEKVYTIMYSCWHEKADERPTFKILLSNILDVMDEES

SMILES | K (min^−1), intrinsic rate constant [1] | IC50 (BTK wildtype protein [2]) | IC50 (BTK C481S protein) | BTK (wt) Kobs (BTK wildtype protein [3])
C=CC(=O)N(CC)C1CC1 | 0.0159 min⁻¹ |  |  | 
C=CC(=O)N(CC)CC | 0.0012 min⁻¹ |  |  | 
C=CC(=O)N1CCCCC1C (stereo not drawn) | 0.0029 min⁻¹ |  |  | 
COc1ccc(F)cc1C(=O)NCc1ccc(-c2nn(C[C@@H]3CCC[C@H]3CN(C)C(=O)n3cncn3)c3ncnc(N)c23)cc1 [Compound 153, N-(((1R,2R)-2-((4-amino-3-(4-((5-fluoro-2-methoxybenzamido)methyl)phenyl)-1H-pyrazolo[3,4-d]pyrimidin-1-yl)methyl)cyclopentyl)methyl)-N-methyl-1H-1,2,4-triazole-1-carboxamide] |  | ≤ 1000 nM | ≤ 1000 nM | 132, 134, 136, 137, 138, 140, 150, 152, 153, 154, 155, M^−1 · s^−1
COc1ccc(F)cc1C(=O)NCc1ccc(-c2nn(C[C@H]3CCCCN3C(=O)n3cncn3)c(N)c2C(N)=O)cc1 [Compound 154, (R)-1-((1-(1H-1,2,4-triazole-1-carbonyl)piperidin-2-yl)methyl)-5-amino-3-(4-((5-fluoro-2-methoxybenzamido)methyl)phenyl)-1H-pyrazole-4-carboxamide] |  | ≤ 1000 nM | ≤ 1000 nM | 132, 134, 136, 137, 138, 140, 150, 152, 153, 154, 155, M^−1 · s^−1
COc1ccc(F)cc1C(=O)NCc1ccc(-c2nn(C(C)C(C)N(C)C(=O)n3cnnc3)c(N)c2C(N)=O)cc1 (stereo not drawn) [Compound 155, N-(3-(5-amino-4-carbamoyl-3-(4-((5-fluoro-2-methoxybenzamido)methyl)phenyl)-1H-pyrazol-1-yl)butan-2-yl)-N-methyl-4H-1,2,4-triazole-4-carboxamide] |  | > 1000 nM | ≤ 1000 nM | 132, 134, 136, 137, 138, 140, 150, 152, 153, 154, 155, M^−1 · s^−1
COc1ccc(F)cc1C(=O)NCc1ccc(-c2nn(C(C)C3CCCCN3C(=O)n3cncn3)c(N)c2C(N)=O)cc1 (stereo not drawn) [Compound 249, 1-(1-(1-(1H-1,2,4-triazole-1-carbonyl)piperidin-2-yl)ethyl)-5-amino-3-(4-((5-fluoro-2-methoxybenzamido)methyl)phenyl)-1H-pyrazole-4-carboxamide] |  | ≤ 1000 nM | ≤ 1000 nM | 248, 249, 250, 253, 254, 256, 259, 260, 261, 264, 265, M^−1 · s^−1
COc1ccc(F)cc1C(=O)NCc1ccc(-c2nn(C(C)C(C)N(C)C(=O)n3cncn3)c3ncnc(N)c23)cc1 (stereo not drawn) [Compound 250, N-(3-(4-amino-3-(4-((5-fluoro-2-methoxybenzamido)methyl)phenyl)-1H-pyrazolo[3,4-d]pyrimidin-1-yl)butan-2-yl)-N-methyl-1H-1,2,4-triazole-1-carboxamide] |  | ≤ 1000 nM | ≤ 1000 nM | 248, 249, 250, 253, 254, 256, 259, 260, 261, 264, 265, M^−1 · s^−1
COc1ccc(F)cc1C(=O)NCc1ccc(-c2nn(C(CCCN(C)C(=O)n3cncn3)N(C)C)c3ncnc(N)c23)cc1 (stereo not drawn) [Compound 254, N-(4-(4-amino-3-(4-((5-fluoro-2-methoxybenzamido)methyl)phenyl)-1H-pyrazolo[3,4-d]pyrimidin-1-yl)-4-(dimethyl-amino)butyl)-N-methyl-1H-1,2,4-triazole-1-carboxamide] |  | > 1000 nM | > 1000 nM | 248, 249, 250, 253, 254, 256, 259, 260, 261, 264, 265, M^−1 · s^−1
COc1ccc(F)cc1C(=O)NCc1ccc(-c2nn(C3CCCCN(C(=O)n4cncn4)C3)c(N)c2C(N)=O)cc1 (stereo not drawn) [Compound 256, 1-(1-(1H-1,2,4-triazole-1-carbonyl)azepan-3-yl)-5-amino-3-(4-((5-fluoro-2-methoxybenzamido)methyl)phenyl)-1H-pyrazole-4-carboxamide] |  | ≤ 1000 nM | ≤ 1000 nM | 248, 249, 250, 253, 254, 256, 259, 260, 261, 264, 265, M^−1 · s^−1
COc1ccc(F)cc1C(=O)NCc1ccc(-c2nn(C[C@H](C(C)C)N(C)C(=O)n3cncn3)c3ncnc(N)c23)cc1 [Compound 259, (S)-N-(1-(4-amino-3-(4-((5-fluoro-2-methoxybenzamido)methyl)phenyl)-1H-pyrazolo[3,4-d]pyrimidin-1-yl)-3-methylbutan-2-yl)-N-methyl-1H-1,2,4-triazole-1-carboxamide] |  | > 1000 nM | > 1000 nM | 248, 249, 250, 253, 254, 256, 259, 260, 261, 264, 265, M^−1 · s^−1
COc1ccc(F)cc1C(=O)NCc1ccc(-c2nn(C3CCCC(CN(C)C(=O)n4cncn4)C3)c3ncnc(N)c23)cc1 (stereo not drawn) [Compound 260, N-((3-(4-amino-3-(4-((5-fluoro-2-methoxybenzamido)methyl)phenyl)-1H-pyrazolo[3,4-d]pyrimidin-1-yl)cyclohexyl)methyl)-N-methyl-1H-1,2,4-triazole-1-carboxamide] |  | ≤ 1000 nM | ≤ 1000 nM | 248, 249, 250, 253, 254, 256, 259, 260, 261, 264, 265, M^−1 · s^−1
COCC(CN(C)C(=O)n1cncn1)n1nc(-c2ccc(CNC(=O)c3cc(F)ccc3OC)cc2)c2c(N)ncnc21 (stereo not drawn) [Compound 261, N-(2-(4-amino-3-(4-((5-fluoro-2-methoxybenzamido)methyl)phenyl)-1H-pyrazolo[3,4-d]pyrimidin-1-yl)-3-methoxypropyl)-N-methyl-1H-1,2,4-triazole-1-carboxamide] |  | > 1000 nM | > 1000 nM | 248, 249, 250, 253, 254, 256, 259, 260, 261, 264, 265, M^−1 · s^−1
COc1ccc(F)cc1C(=O)NCc1ccc(-c2nn(C[C@@H]3C[C@@H](C)CCN3C(=O)n3cnnc3)c(N)c2C(N)=O)cc1 [Compound 264, 5-amino-3-(4-((5-fluoro-2-methoxybenzamido)methyl)phenyl)-1-(((2S,4S)-4-methyl-1-(4H-1,2,4-triazole-4-carbonyl)piperidin-2-yl)methyl)-1H-pyrazole-4-carboxamide] |  | ≤ 1000 nM | ≤ 1000 nM | 248, 249, 250, 253, 254, 256, 259, 260, 261, 264, 265, M^−1 · s^−1
CN(CCC1CNc2c(C(N)=O)c(-c3ccc(Oc4ccccc4)cc3)nn2C1)C(=O)n1cncn1 (stereo not drawn) [Compound 265, 6-(2-(N-methyl-1H-1,2,4-triazole-1-carboxamido)ethyl)-2-(4-phenoxy-phenyl)-4,5,6,7-tetrahydro-pyrazolo[1,5-a]pyrimidine-3-carboxamide] |  | > 1000 nM | ≤ 1000 nM | 248, 249, 250, 253, 254, 256, 259, 260, 261, 264, 265, M^−1 · s^−1
